Measurements taken from patent US9987294B2, “Mitochondria-targeted anti-tumor agents” (University of Massachusetts, priority 2007, dated 2018).
“Also recorded” adds a separate entry of the source.

What was measured:
HeLa cell mitochondria = assay: Cytochrome c and Smac release from isolated tumor mitochondria (Western blotting); assay type: biochemical, human
Method: (§1) Tumor cell types were treated with controls or the various Hsp90 antagonists, and cytosolic extracts were harvested at increasing time intervals between 5-30 minutes and analyzed by Western blotting. For experiments in a cell-free system, purified mitochondria (20 μg) were suspended in 500 μl of SB buffer (0.2 M sucrose, 10 mM Tris-MOPS, pH 7.4, 5 mM succinate, 1 mM sodium phosphate, 10 μM EGTA-Tris, and 2 μM rotenone). Samples were treated with controls or the various Hsp90 antagonists for 20 minutes at 22° C. At the end of each incubation reaction, mitochondria and supernatants were separated by centrifugation at 6,000×g for 10 minutes, and analyzed by Western blotting.

Raji cells = assay: Mitochondrial membrane potential in JC-1-loaded cells (flow cytometry); assay type: cell-based, human; settings: within five minutes of addition
Method: Raji cells were treated with Shepherdin or control scrambled peptidomimetic (100 μM) or 17-AAG (5 μM), loaded with the mitochondrial membrane potential-sensitive fluorescent dye JC-1, and analyzed for changes in green/red fluorescence ratio by flow cytometry. For experiments in a cell-free system, purified mitochondria isolated from primary normal cells, various tumor cells types, or normal mouse organs were suspended in SB buffer. […] For these experiments, TMRM-loaded mitochondria in SB buffer were allowed to reach stable fluorescence, which was set as fully polarized state (maximum membrane potential). The fluorescence intensity after treatment with 2 mM CaCl2 was set as minimum membrane potential (fully depolarized state). Changes in fluorescence intensity after each treatment were plotted as a ratio between maximum and minimum membrane potential.

HeLa cells = assay: Cytochrome c release into the cytosol of treated tumor cells (Western blotting); assay type: cell-based, human
tumor cells = assay: Cell viability by MTT, tumor cell types; assay type: cell-based
[1] = test system: Akt, Chk1 and Hsp70 in HeLa cells; assay: Hsp90 client protein and Hsp70 levels in treated cells (Western blotting); assay type: cell-based, human; settings: 5 μM for 24 hours
Method: In other experiments, chaperone-dependent GST-Chk1 reconstitution was determined as described previously (Arlander et al., “Chaperoning checkpoint kinase 1 (Chk1), an Hsp90 client, with purified chaperones,” J Biol Chem, 281:2989-2998 (2006)). Briefly, each sample contained 0.7 μg of resin-bound GST-Chk1 (residues 1-265), 1 μg of purified human Hsp90α, and the following amounts of other purified chaperone proteins: 10 μg Hsp70, 2 μg Hdj1, 2 μg p50^cdc37, 0.06 units CK2, 2.5 μg p60^Hop. Optical densities due to Chk1-dependent phosphorylation of Cdc25 in the presence and absence of Gamitrinib or 17-AAG were determined and plotted as fold activation above the sample lacking added chaperone proteins. In some experiments, HeLa cells were treated with Gamitrinibs (G1-G4) or 17-AAG (5 μM) for 24 hours, and isolated extracts were analyzed for modulation of Akt or Hsp70 expression, by Western blotting

[2] = test system: isolated tumor mitochondria; assay: Inner membrane potential of TMRM-loaded tumor mitochondria; assay type: biochemical
Method: (§2) The fluorescence intensity after treatment with 2 mM CaCl2 corresponded to a fully depolarized state. Alternatively, H460 cells were labeled with the fluorescent dye JC-1 (Molecular Probes), and analyzed for changes in red/green (F1-2/F1-1) fluorescence ratio after treatment with the various agents, by multiparametric flow cytometry. Cytochrome c content in pellets or supernatants of drug-treated isolated mitochondria was determined by Western blotting.

tumor mitochondria = assay: Cytochrome c release from drug-treated isolated tumor mitochondria; assay type: biochemical
Method: as §1, with “Samples were treated with controls or the various Hsp90 antagonists for 20 minutes at 22° C.” left out
as §2

[3] = test system: lung adenocarcinoma H460 cells; assay: Cell viability by MTT, H460; assay type: cell-based, human
Method: (§3) Modulation of cell viability was determined by MTT (Kang et al., “Regulation of tumor cell mitochondrial homeostasis by an organelle-specific Hsp90 chaperone network,” Cell, 131:257-270 (2007)). For determination of apoptosis, cells were analyzed for caspase activity (DEVDase activity) and plasma membrane integrity (propidium iodide) using CaspaTag (Intergen, Burlington, Mass.), by multiparametric flow cytometry (Kang et al., “Regulation of tumor cell mitochondrial homeostasis by an organelle-specific Hsp90 chaperone network,” Cell, 131:257-270 (2007)).

[4] = test system: breast adenocarcinoma SKBr3 cells; assay: Metabolic activity by MTT, SKBr3; assay type: cell-based; settings: 10 μM; by 48 hours and throughout a 96-hours interval
Method: as §3

SKBr3 cells = assay: Dead cells by Trypan blue staining, SKBr3; assay type: cell-based; settings: 10 μM
[5] = test system: H460 lung adenocarcinoma xenograft tumors; assay: Xenograft tumor growth, H460; assay type: in vivo, mice; settings: i.p.; G4 and 17-AAG 2-3 mg/kg twice daily, G1 30-50 mg/Kg daily, TPP 10 mg/Kg daily
Method: To create the models used in this example, HL60 (10×10^6) or H460 (4×10^6) cells suspended in sterile PBS (200 μl) were injected subcutaneously into both flanks of 10 week-old CB17 SCID/beige (Taconic Farms) immunocompromised female mice. Alternatively, MDA-MB-231 cells (5×10^6) suspended in 200 μl of 50% Matrigel (BD Biosciences) were used for subcutaneous injection in CB17 SCID/beige mice. When superficial tumors reached volumes of 100-150 mm^3, animals were randomized in two groups (2 tumors/mouse, 3 animals/group), and treated with vehicle (DMSO) or Gamitrinib dissolved in 20% Cremophor EL (Sigma) in PBS by intraperitoneal (i.p.) injection. Gamitrinib-G4 was used as sterile i.p. injections with the following schedules: HL60 xenografts, 2 mg/Kg twice daily; H460 xenografts, 2 mg/kg twice daily for d 0, 2.5 mg/kg twice daily for d 1, 3.0 mg/kg twice daily for the duration of treatment; MDA-MB-231 xenografts, 2 mg/Kg twice daily for d 0-2, 2.5 mg/Kg twice daily for d 3-5, and 3 mg/Kg twice daily throughout the rest of the treatment. 17-AAG was dissolved in 20% Cremophor EL and used as systemic i.p. injections with the same dose-escalating regimen as Gamitrinib-G4 in H460 xenograft studies. Gamitrinib-G1 was used with following schedules: 30 mg/Kg daily (d 0-2), and 50 mg/Kg daily for the rest of treatment. Gamitrinib-TPP was used as i.p. injections at 10 mg/Kg daily throughout the duration of the experiment. Tumor measurements were taken daily with a caliper, and tumor volume was calculated with the formula ([length in millimeters]×[width in millimeters]^2)/2. Mice in the various treatment groups were weighed at the beginning and at the end of each experiment.

C=CCNC1=C2C[C@@H](C)C[C@H](OC)[C@H](O)[C@@H](C)/C=C(\C)[C@H](OC(N)=O)[C@@H](OC)/C=C\C=C(/C)C(=O)NC(=CC1=O)C2=O [Gamitrinib 17-AAG, 17-allylamino-demethoxygeldamycin]
cytochrome c or Smac release from isolated tumor mitochondria (HeLa cell mitochondria; HeLa cell mitochondria): did not induce cytochrome c or Smac release; also recorded: had no effect on mitochondrial integrity | discharge of mitochondrial cytochrome c and Smac in the supernatant (HeLa cell mitochondria; high concentrations (20 μM)): a small discharge of mitochondrial cytochrome c, but not Smac | mitochondrial membrane potential in tumor cells (Raji cells): did not affect mitochondrial membrane potential in HeLa cells | cytochrome c release into the cytosol (HeLa cells): had no effect on cytochrome c release over a wide range of concentrations | tumor cell viability / killing (tumor cells; 1 hour exposure, MTT): had no effect on tumor cell viability within the same kinetics | tumor cell killing (tumor cells; prolonged exposure, 24 hours after treatment): partial cell killing; also recorded: modest anticancer activity | expression of the chaperone Hsp70 [1]: increased expression of the chaperone Hsp70 | levels of client proteins Chk1 and Akt [1]: destabilization of client proteins, Chk1 and Akt | mitochondrial inner membrane potential [2]: did not affect mitochondrial membrane potential | discharge of mitochondrial cytochrome c (tumor mitochondria; 20 minutes): ineffective | cytochrome c release from mitochondria (tumor mitochondria; 3 hours (FIG. 16D)): had no effect on cytochrome c release | cell viability ([3]; 3 hour exposure): had no effect | cell viability ([3]; 24 hours): partial reduction in cell viability or cell proliferation | metabolic activity [4]: comparably reduced metabolic activity | tumor cell killing (dead cells) (SKBr3 cells): most SKBr3 cells treated with 17-AAG were still alive after 72 hours | tumor growth [5]: had no effect on human lung cancer growth in mice
